Data as given in ChEMBL document CHEMBL1144199, “Design, synthesis, and biological evaluation of new mitonafide derivatives as potential antitumor drugs” (Bioorg Med Chem, 2008).
pIC50: −log10 of the molar value.

Key:
DNA = assay: Displacement of ethidium bromide from calf thymus DNA assessed as ratio of concentration of ethidium in ethidium DNA complex to drug concentration by fluorometric assay; type: nucleic-acid assay; details: Bos taurus
HT-29 = assay: Cytotoxicity against human HT-29 cells after 144 hrs; type: functional, cell-based; details: HT-29, 144 h

| SMILES | Kapp (DNA) | pIC50 (HT-29) |
| --- | --- | --- |
| CN(C)CCN1C(=O)c2cccc3c(NCCNCCO)ccc(c23)C1=O | 2.4 ×10⁷ /M | 6.11 |
| CN(C)CCNc1c([N+](=O)[O-])cc2c3c(cccc13)C(=O)N(CCN(C)C)C2=O | 7.7 ×10⁷ /M | 6.92 |
| CN(C)CCCNc1ccc2c3c(cccc13)C(=O)N(CCCN(C)CCCN1C(=O)c3cccc4c(NCCCN(C)C)ccc(c34)C1=O)C2=O | 1.1 ×10⁸ /M | 7.00 |
| CN(C)CCCNc1ccc2c3c(cccc13)C(=O)N(CCCN(C)C)C2=O | 1.3 ×10⁷ /M | 5.85 |
| CN(C)CCNc1ccc2c3c(cccc13)C(=O)N(CCN(C)C)C2=O | 2.3 ×10⁷ /M | 6.80 |
| CN(C)CCCNc1c([N+](=O)[O-])cc2c3c(cccc13)C(=O)N(CCCN(C)C)C2=O | 7 ×10⁷ /M | 6.85 |
| CN(C)CCNC(=O)c1ccc(NCCN(C)C)c2c(=O)c3ccccc3[nH]c12 |  | 7.36 |
| CCN(CC)CCCNc1ccc2c3c(cccc13)C(=O)N(CCN(C)C)C2=O | 1.9 ×10⁷ /M | 6.05 |
| CN(C)CCNc1ccc2c3c(cccc13)C(=O)N(CCCN(C)CCCN1C(=O)c3cccc4c(NCCN(C)C)ccc(c34)C1=O)C2=O | 2.3 ×10⁸ /M | 7.22 |
| CN(C)CCCNc1ccc2c3c(cccc13)C(=O)N(CCN(C)C)C2=O | 1.9 ×10⁷ /M | 6.03 |
| CN(C)CCN1C(=O)c2cccc3cc([N+](=O)[O-])cc(c23)C1=O [MITONAFIDE] | 3.4 ×10⁶ /M | 6.66 |
| CN(C)CCNc1c(N)cc2c3c(cccc13)C(=O)N(CCN(C)C)C2=O | 4.5 ×10⁷ /M | 6.09 |
| CN(C)CCCN1C(=O)c2cccc3c(NCCN(C)C)ccc(c23)C1=O | 1.5 ×10⁷ /M | 5.77 |
| CCN(CC)CCNc1ccc2c3c(cccc13)C(=O)N(CCN(C)C)C2=O | 2.3 ×10⁷ /M | 5.68 |
| CN(C)CCNC(=O)c1cccc2c(=O)c3ccccc3[nH]c12 |  | 5.77 |
| NCCNc1c([N+](=O)[O-])cc2c3c(cccc13)C(=O)N(CCN)C2=O | 5.3 ×10⁷ /M | 6.07 |
| CN(C)CCCNc1c(N)cc2c3c(cccc13)C(=O)N(CCCN(C)C)C2=O | 3.9 ×10⁷ /M | 4.77 |
